In patent publication US6465492B1, “Heterocyclic compounds” (Sinon Corporation, priority 2001, dated 2002):

System: aphids
Assay: Biological test on aphid (spray on cabbage leaf in Petri dishes)
Type: in vivo
Details: for Number of dead aphids 1st: 1st Petri dish; for Number of dead aphids 1st / Number of dead aphids 2nd / Number of dead aphids 3rd / Number of dead aphids 4th: 20 aphids on cabbage leaf, 9.6% w/w pesticide reagent diluted 1000 times with water, sprayed, examined after 24 hours; for Number of dead aphids 2nd: 2nd Petri dish; for Number of dead aphids 3rd: 3rd Petri dish; for Number of dead aphids 4th: 4th Petri dish; for Number of dead aphids average: average of four Petri dishes
Experimental: 9.6 g of the compound (based on the active ingredient) obtained from Example 1 was blended with 90.4 g of a solvent to form a 9.6% w/w pesticide reagent An 8 cm×8 cm piece of cabbage leaf was placed on a lump of wetted cotton in each one of four Petri dishes. 20 aphids were subsequently put on the cabbage leaf in each one of the Petri dishes. The thus formed pesticide reagent was diluted 1000 times with water to form a diluted solution which was then sprayed onto the cabbage leaf in each one of the Petri dishes in a predetermined amount. The number of dead aphids in each one of the Petri dishes was examined after 24 hours.
Example 13 was repeated, except that the compound employed in Example 13 was replaced by the compound obtained from a respective one of the Examples 2 to 12.
Example 13 was repeated, except that the compound employed in Example 13 was replaced by imidachloprid which is a heterocyclic compound of the formula disclosed in U.S. Pat. No. 4,742,060.
Table 2 lists the effectiveness of the pesticide reagents prepared in Examples 13 to 24 and the Comparative Example 1.

[1] = 20 aphids each, 9.6% w/w reagent diluted 1000 times, after 24 hours

| SMILES | Number of dead aphids 1st | Number of dead aphids 2nd | Number of dead aphids 3rd | Number of dead aphids 4th | Number of dead aphids average [1] | Effectiveness (higher value indicates greater effectivity, four Petri dishes, 20 aphids each, 9.6% w/w reagent diluted 1000 times, after 24 hours) |
| --- | --- | --- | --- | --- | --- | --- |
| O=S(=O)(N=C1OCCN1Cc1ccc(Cl)nc1)c1ccc(Cl)cc1 [Example 24, 3-(2-chloro-5-pyridylmethyl)-2-[(4-chlorophenyl)sulfonylimino]oxazolidine] | 15 | 18 | 19 | 19 | 17.75 | – |
| O=S(=O)(N=C1NCCCN1Cc1ccc(Cl)nc1)c1ccc(Cl)cc1 [Example 18, 3-(2-chloro-5-pyridylmethyl)-2-[(4-chlorophenyl)sulfonylimino]tetrahydropyrimidine] | 19 | 19 | 19 | 17 | 18.5 | – |
| O=S(=O)(N=C1NCCN1Cc1ccc(Cl)nc1)c1ccc(Cl)cc1 [Example 17, 3-(2-chloro-5-pyridylmethyl)-2-[(4-chlorophenyl)sulfonylimino]imidazolidine] | 20 | 18 | 19 | 20 | 19.25 | – |
| Cc1ccc(S(=O)(=O)N=C2SCCN2Cc2ccc(Cl)nc2)cc1 [Example 19, 3-(2-chloro-5-pyridylmethyl)-2-[(4-methylphenyl)sulfonylimino]thiazolidine] | 17 | 16 | 18 | 17 | 17 | – |
| CS(=O)(=O)/N=C1\NCCN1Cc1ccc(Cl)nc1 [Example 15, 3-(2-chloro-5-pyridylmethyl)-2-[methylsulfonylimino] imidazolidine] | 16 | 18 | 19 | 19 | 18 | – |
| Cc1ccc(S(=O)(=O)N=C2NCCN2Cc2ccc(Cl)nc2)cc1 [Example 13, 3-(2-chloro-5-pyridylmethyl)-2-[(4-methylphenyl)sulfonylimino]imidazolidine] | 15 | 18 | 16 | 17 | 16.5 | – |
| O=[N+]([O-])/N=C1\NCCN1Cc1ccc(Cl)nc1 [Comparative Example 1, imidachloprid, reference compound] | 18 | 17 | 18 | 16 | 17.25 | 86.08 |
| O=S(=O)(N=C1SCCN1Cc1ccc(Cl)nc1)c1ccc(Cl)cc1 [Example 23, 3-(2-chloro-5-pyridylmethyl)-2-[(4-chlorophenyl)sulfonylimino]thiazolidine] | 18 | 18 | 16 | 18 | 17.5 | – |
| CS(=O)(=O)N=C1NCCCN1Cc1ccc(Cl)nc1 [Example 16, 3-(2-chloro-5-pyridylmethyl)-2-[methylsulfonylimino]tetrahydropyrimidine] | 17 | 17 | 19 | 19 | 18 | – |
| CS(=O)(=O)/N=C1\OCCN1Cc1ccc(Cl)nc1 [Example 22, 3-(2-chloro-5-pyridylmethyl)-2-[methylsulfonylimino]oxazolidine] | 18 | 16 | 19 | 17 | 17.5 | – |
| Cc1ccc(S(=O)(=O)N=C2OCCN2Cc2ccc(Cl)nc2)cc1 [Example 20, 3-(2-chloro-5-pyridylmethyl)-2-[(4-methylphenyl)sulfonylimino]oxazolidine] | 17 | 16 | 18 | 15 | 16.5 | – |
| CS(=O)(=O)/N=C1\SCCN1Cc1ccc(Cl)nc1 [Example 21, 3-(2-chloro-5-pyridylmethyl)-2-[methylsulfonylimino]thiazolidine] | 16 | 18 | 19 | 18 | 17.75 | – |
| Cc1ccc(S(=O)(=O)N=C2NCCCN2Cc2ccc(Cl)nc2)cc1 [Example 14, 3-(2-chloro-5-pyridylmethyl)-2-[(4-methylphenyl)sulfonylimino]tetrahydropyrimidine] | 16 | 17 | 17 | 16 | 16.5 | – |
